According to patent US20080076824A1, “Compounds That Inhibit Replication Of Human Immunodeficiency Virus” (priority 2004, published 2008):
Several values for one entry are separate records, joined by “and”; a condition that tells them apart may be missing. Identical values can stand only once. Counter-ions that a name gives are not always drawn.

Assays:
[1] = Cytotoxicity (CC50) in MT-4 cells; assay type: cell-based; details: human, MT-4 cells
[2] = Microdose study of 14C-AlphaHGA in healthy volunteers, urine pharmacokinetics (AMS); assay type: in vivo, human; details: for cumulative recovery of the dose in the urine over 24 hr: range; for AUCTmax / AUClast / Dlast / Dmax / Tmax / Tfirst / Tlast: urine
Experimental: In this example, the pharmacokinetics (PK) and oral bioavailability of AlphaHGA in adult healthy volunteers following a single ‘microdose’ in a sequence-randomized, cross-over study design (two periods 7 days apart) was determined. Clinical experiments were conducted with low-level radiolabelled (^14C) AlphaHGA administered intravenously (IV) orally (PO) with serial blood and urine samples were collected for concentration analysis utilizing accelerator mass spectrometry (AMS).
Accordingly, eight subjects were enrolled into a single dose cross-over study. The subjects were randomly assigned to one of two administration sequences. Subjects that were assigned to sequence 1 received AlphaHGA as an oral preparation first (Period 1) followed by the intravenous (IV) preparation 1 week later (Period 2). Subjects assigned to sequence 2 received AlphaHGA as an intravenous preparation first followed by the oral preparation 1 week later. Four subjects were assigned to sequence 1 and four subjects were assigned to sequence 2.
For both oral and IV doses subjects were administered 100 nCi (3.7 Kbq) of alphaHGA, which was determined to contain 1.602888×10ˆ6 fmol of ^14C. The specific activity of each dose was 46.619 MBq/mol (or 1.260 mCi/mol). A stock blend of ^14C-labelled alphaHGA was produced prior to the first study period. The actual formulations used for dosing were prepared on the morning prior to each study period. The infusion was a single bolus injection with both the infusion and flush were completed in less than 30 seconds.
Urine samples were collected at pre-dose and during post-dose time intervals: 0 to 4, 4 to 8, 8 to 12, 12 to 16, and 16 to 24 hours. All urine collections were obtained. Cumulative urine voidings for the specified time intervals were collected in standard collection containers without additional modifiers or preservatives
Plasma specimens (30 μL) were analyzed directly via the combustive procedure without further chemical manipulation. For the purposes of calculating ^14C concentration per volume of plasma, a general carbon content of 45% (dry mass) was applied. The urine was mixed with equal volumes (0.5 mL) of a sucrose carbon diluent solution (200 g/L) and mixed by inversion in a disposable polypropylene centrifuge tube. A 20-μL sample was graphitized for AMS analysis according to standard procedures. The mass fraction of the urine represented in the measured sample was inverted and multipled by the ^14C contents above background derived from the AMS measurement to calculate the ^14C content in the total urine void. A density value of 1 g/mL for urine was assumed to calculate its volume from the recorded masses.
Area-under-the-plasma-concentration-time curve from time zero to the last quantified concentration (AUClast), was calculated by the linear trapezoidal method from the observed concentrations. Area-under-the concentration-time curve from time zero to infinity (AUCinf) was obtained as the sum of AUClast and the extrapolation term Clast/λz, where Clast denotes the last observed quantifiable concentration. The percentage of AUCinf obtained by extrapolation (AUC % extrap) was calculated as [(AUCinf−AUClast)/AUCinf]*100. It should be noted that the area for the IV plasma data will result in an underestimation of the AUC in the first trapezoid because the concentration at time 0 was set to 0 and there is not reasonable way to impute a value at time 0. Area-under-the-concentration-time curve from time zero to the maximum concentration (AUCTmax) was calculated by the linear trapezoidal method. […]. This approach was necessary given the nature of the parameters requested by the sponsor.
Values for the following PK parameters were estimated from urine levels of AlphaHGA during the various time intervals. […]

[3] = system: C8166 cells; experiment: Cytotoxicity (CC50) in C8166 cells; assay type: cell-based
[4] = system: MT-4 cells; experiment: Cytotoxicity (CC50) in MT-4 cells; assay type: cell-based
[5] = route iv, individual subjects 1-8, period 1 or 2, hydrochloride, dosing period 1
[6] = route iv, individual subjects 1-8, period 1 or 2, hydrochloride, dosing period 2
[7] = route po, individual subjects 1-8, period 1 or 2, dosing period 1
[8] = route po, individual subjects 1-8, period 1 or 2, dosing period 2
[9] = route po, individual subjects 1-8, period 1 or 2, hydrochloride, dosing period 1
[10] = route po, individual subjects 1-8, period 1 or 2, hydrochloride, dosing period 2

## NC(=O)C(N)O (stereo not drawn) [AlphaHGA, α-Hydroxy-glycinamide hydrochloride]
[1]
  CC50: 372 ± 107 µM
[2]; IV administration
  cumulative recovery of the dose in the urine over 24 hr, mean: 63.7
  cumulative recovery of the dose in the urine over 24 hr: 35-100%
[2]; oral administration
  cumulative recovery of the dose in the urine over 24 hr: 34-100%
[2]; Period 1, Max
  AUCTmax: 748180 fmol·h
  AUClast: 2934335 fmol·h
  Dlast: 41355 fmol
  Dmax: 374090 fmol
[2]; Period 1, Mean
  AUCTmax: 654984 fmol·h
  AUClast: 2575235 fmol·h
  Dlast: 29774 fmol
  Dmax: 327492 fmol
[2]; Period 1, Min
  AUCTmax: 459180 fmol·h
  AUClast: 2239453 fmol·h
  Dlast: 19395 fmol
  Dmax: 229590 fmol
[2]; Period 2, Max
  AUCTmax: 1882171 fmol·h
  AUClast: 6993866 fmol·h
  Dlast: 133040 fmol
  Dmax: 941085 fmol
[2]; Period 2, Mean
  AUCTmax: 1437891 fmol·h
  AUClast: 6007590 fmol·h
  Dlast: 98450 fmol
  Dmax: 718945 fmol
[2]; Period 2, Min
  AUCTmax: 1207722 fmol·h
  AUClast: 5220702 fmol·h
  Dlast: 48888 fmol
  Dmax: 603861 fmol
[2]; Route iv, Max
  AUCTmax: 1489152 fmol·h
  AUClast: 6540408 fmol·h
  Dlast: 114767 fmol
  Dmax: 744576 fmol
[2]; Route iv, Mean
  AUCTmax: 964045 fmol·h
  AUClast: 4155954 fmol·h
  Dlast: 61864 fmol
  Dmax: 482022 fmol
[2]; Route iv, Min
  AUCTmax: 459180 fmol·h
  AUClast: 2368127 fmol·h
  Dlast: 19716 fmol
  Dmax: 229590 fmol
[2]; Route po, Max
  AUCTmax: 1882171 fmol·h
  AUClast: 6993866 fmol·h
  Dlast: 133040 fmol
  Dmax: 941085 fmol
[2]; Route po, Mean
  AUCTmax: 1128830 fmol·h
  AUClast: 4426871 fmol·h
  Dlast: 66360 fmol
  Dmax: 564415 fmol
[2]; Route po, Min
  AUCTmax: 710260 fmol·h
  AUClast: 2239453 fmol·h
  Dlast: 19395 fmol
  Dmax: 355130 fmol
[2]; route iv, individual subjects 1-8, period 1 or 2
  Tmax: 4 h
[2]; route iv, individual subjects 1-8, period 1 or 2, dosing period 1
  Tfirst: 4 h
[2]; route iv, individual subjects 1-8, period 1 or 2, dosing period 2
  Tfirst: 4 h
[2]; [5]
  AUCTmax: 684594 fmol·h and 543376 fmol·h and 639322 fmol·h and 459180 fmol·h
  AUClast: 2934335 fmol·h and 2573446 fmol·h and 2551259 fmol·h and 2368127 fmol·h
  Dlast: 32699 fmol and 40072 fmol and 41355 fmol and 19716 fmol
  Dmax: 342297 fmol and 271688 fmol and 319661 fmol and 229590 fmol
  Tlast: 24 h
[2]; [6]
  AUCTmax: 1207722 fmol·h and 1479193 fmol·h and 1489152 fmol·h and 1209818 fmol·h
  AUClast: 5505102 fmol·h and 5554250 fmol·h and 6540408 fmol·h and 5220702 fmol·h
  Dlast: 48888 fmol and 88098 fmol and 109317 fmol and 114767 fmol
  Dmax: 603861 fmol and 739597 fmol and 744576 fmol and 604909 fmol
  Tlast: 24 hr (3×) and 16 hr
[2]; route po, individual subjects 1-8, period 1 or 2
  Tmax: 4 h
[2]; [7]
  Tfirst: 4 h
  Tlast: 24 h
[2]; [8]
  Tfirst: 4 h
  Tlast: 24 h
[2]; [9]
  AUCTmax: 727839 fmol·h and 710260 fmol·h and 727119 fmol·h and 748180 fmol·h
  AUClast: 2696170 fmol·h and 2239453 fmol·h and 2618588 fmol·h and 2620500 fmol·h
  Dlast: 22280 fmol and 30936 fmol and 19395 fmol and 31737 fmol
  Dmax: 363920 fmol and 355130 fmol and 363559 fmol and 374090 fmol
[2]; [10]
  AUCTmax: 1882171 fmol·h and 1326533 fmol·h and 1425912 fmol·h and 1482625 fmol·h
  AUClast: 6993866 fmol·h and 6127092 fmol·h and 6093252 fmol·h and 6026045 fmol·h
  Dlast: 80465 fmol and 133040 fmol and 109798 fmol and 103226 fmol
  Dmax: 941085 fmol and 663266 fmol and 712956 fmol and 741313 fmol

## NCC(N)=O [G-NH2, glycinamide]
[3]
  CC50: > 2 mM
[4]
  CC50: > 2 mM
